# Reference: patent publication US20240279233A1, “MACROCYCLIC TAK1 INHIBITORS” (Aqilion AB, priority 2021, published 2024)
# Where two headings read alike, the source gives them in different places.
# Target: human recombinant TAK1-TAB1 Kinase (TAK1 (1-303) and TAB1 (437-end)) (Homo sapiens (Human), UniProt O43318)
# Assay: TAK1 biochemical ADP-Glo kinase assay
# Settings: MBP substrate
# Protocol: The usefulness of the example compounds of the invention as TAK1 inhibitors was evaluated in a biochemical ADP-Glo kinase assay. Assay kits from Promega Corporation V4089 were used according to manufacturer's instructions and adapted as outlined here. ADP-Glo Kinase Assay kit contains ADP-Glo Reagent, Kinase Detection Reagent, kinase detection buffer, ATP, and ADP. The Kinase Enzyme Systems include human recombinant TAK1-TAB1 Kinase (TAK1 (1-303) and TAB1 (437-end)), Native Swine Myelin Basic Protein (MBP) substrate, 5×kinase reaction buffer, and DTT.
# Test compounds were prepared in 1:5 serial dilutions at 8 concentrations in DMSO from 10 mM stock solutions. An additional 20-fold dilution in 1× kinase reaction buffer (see below) was performed, yielding a final dilution series in kinase buffer with 5% DMSO (final concentration in assay from 20 μM to 0.26 nM, 1% DMSO). As controls, Takinib was prepared as positive control (3 μM final in assay), and DMSO without inhibitor served as negative control, at a final assay concentration of DMSO of 1%.
# One μl of compound solution in 5% DMSO was added to each well in a 384 well microtiter plate (OptiPlate #6007290). Two μl TAK1-TAB1 (7.5 ng/μl) in lxkinase reaction buffer ([…] Tris base pH 7.5, 20 mM MgCl2, 50 μM DTT, 0.1 mg/ml BSA) was added and pre-incubated 10 min before adding 2 μl of a mixture of MBP substrate and ATP (0.25 μg/μL MBP/25 μM ATP or 0.25 μg/μL MBP/2.5 mM ATP) in 1× kinase reaction buffer (as above). The plate was subsequently incubated at room temperature for 1 hour. Then 5 μl ADP-Glo™ reagent from ADP-Glo™ kit (as above) was added and incubated for 40 min to stop the reaction and consume remaining ATP. Ten μl kinase detection substrate (dissolved in kinase detection buffer, both from ADP-Glo™ kit as above) was then added to convert ADP to ATP and detect ATP with luciferase/luciferin. The plate was incubated for 30 minutes at room temperature in dark before reading luminescence on an Envision (PerkinElmer) reader.
# IC50 values of compounds of the invention were determined by the non-linear regression analysis of dose response curves.
# [1] = 10 μM ATP, read-out: TAK1 Mean IC50 (nM) @ 10 μM ATP
# [2] = 1 mM ATP, read-out: TAK1 Mean IC50 (nM) @ 1 mM ATP
# human recombinant TAK1-TAB1 Kinase (TAK1 (1-303) and TAB1 (437-end)), sequence (O43318 other isoform, or with tags, fused parts or gaps): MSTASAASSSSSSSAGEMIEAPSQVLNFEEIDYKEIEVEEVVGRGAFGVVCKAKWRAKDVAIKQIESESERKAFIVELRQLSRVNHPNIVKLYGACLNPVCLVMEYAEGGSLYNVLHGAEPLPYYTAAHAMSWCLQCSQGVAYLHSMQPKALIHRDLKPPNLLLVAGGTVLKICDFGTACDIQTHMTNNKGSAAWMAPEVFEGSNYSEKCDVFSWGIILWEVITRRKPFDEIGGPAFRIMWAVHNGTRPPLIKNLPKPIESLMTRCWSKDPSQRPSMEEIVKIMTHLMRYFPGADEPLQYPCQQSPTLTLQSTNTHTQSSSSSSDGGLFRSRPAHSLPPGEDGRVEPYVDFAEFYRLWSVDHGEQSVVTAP
IC50 [1] [nM],IC50 [2] [nM],SMILES
6,–,"CC1CCCCNC(=O)c2cccc(c2)C(=O)/N=C2\Nc3cccc(C(=O)N4CC[C@@H](F)C4)c3N21 (single isomer, unassigned) [Example 93]"
4,12,"C[C@H]1CCCCNC(=O)c2cccc(c2)C(=O)/N=C2\Nc3ccnc(N4CCC(F)C4=O)c3N21 (single isomer, unassigned) [Example 126]"
5,18,"C[C@H]1CCCCNC(=O)c2cccc(c2)C(=O)/N=C2\Nc3ccnc(N4CCC(F)C4=O)c3N21 (single isomer, unassigned) [Example 127]"
6,–,"CC1CCCCNC(=O)c2cccc(c2)C(=O)/N=C2\Nc3cccc(-c4nccn4C)c3N21 (single isomer, unassigned) [Example 135, (E)-11-methyl-1^7-(1-methyl-1H-imidazol-2-yl)-1^2,1^3-dihydro-1^1H-2,6-diaza-1(2,1)-benzo[d]imidazola-4(1,3)-benzenacycloundecaphane-3,5-dione]"
9,–,"CC1CCCCNC(=O)c2cccc(c2)C(=O)/N=C2\Nc3cccc(-c4ncn(C(F)F)n4)c3N21 (single isomer, unassigned) [Example 137, (E)-1^7-(1-(difluoromethyl)-1H-1,2,4-triazol-3-yl)-11-methyl-1^2,1^3-dihydro-1^1H-2,6-diaza-1(2,1)-benzo[d]imidazola-4(1,3)-benzenacycloundecaphane-3,5-dione]"
8,–,"CC1CCCCNC(=O)c2cccc(c2)C(=O)/N=C2\Nc3cccc(-c4ncn(C(F)F)n4)c3N21 (single isomer, unassigned) [Example 138, (E)-1^7-(1-(difluoromethyl)-1H-1,2,4-triazol-3-yl)-11-methyl-1^2,1^3-dihydro-1^1H-2,6-diaza-1(2,1)-benzo[d]imidazola-4(1,3)-benzenacycloundecaphane-3,5-dione]"
–,17,"CC1CCCCNC(=O)c2cccc(c2)C(=O)/N=C2\Nc3cccc(-c4ncnn4C(F)F)c3N21 (single isomer, unassigned) [Example 139, (E)-1^7-(1-(difluoromethyl)-1H-1,2,4-triazol-5-yl)-11-methyl-1^2,1^3-dihydro-1^1H-2,6-diaza-1(2,1)-benzo[d]imidazola-4(1,3)-benzenacycloundecaphane-3,5-dione]"
–,6,"CC1CCCCNC(=O)c2cccc(c2)C(=O)/N=C2\Nc3cccc(-c4ncnn4C(F)F)c3N21 (single isomer, unassigned) [Example 140, (E)-1^7-(1-(difluoromethyl)-1H-1,2,4-triazol-5-yl)-11-methyl-1^2,1^3-dihydro-1^1H-2,6-diaza-1(2,1)-benzo[d]imidazola-4(1,3)-benzenacycloundecaphane-3,5-dione]"
–,15,"CC1CCCCNC(=O)c2cccc(c2)C(=O)/N=C2\Nc3cccc(N4CCN(C5CC5)C4=O)c3N21 (single isomer, unassigned) [Example 141, (E)-1^7-(3-cyclopropyl-2-oxoimidazolidin-1-yl)-11-methyl-1^2,1^3-dihydro-1H-2,6-diaza-1(2,1)-benzo[d]imidazola-4(1,3)-benzenacycloundecaphane-3,5-dione]"
7,8,"CC1CCCCNC(=O)c2cccc(c2)C(=O)/N=C2\Nc3cccc(N4CCN(C5CC5)C4=O)c3N21 (single isomer, unassigned) [Example 142, (E)-1^7-(3-cyclopropyl-2-oxoimidazolidin-1-yl)-11-methyl-1^2,1^3-dihydro-1H-2,6-diaza-1(2,1)-benzo[d]imidazola-4(1,3)-benzenacycloundecaphane-3,5-dione]"
–,10,"CC1CCCCNC(=O)c2cccc(c2)C(=O)/N=C2\Nc3cccc(N4CCN(C5COC5)C4=O)c3N21 (single isomer, unassigned) [Example 144, (E)-11-methyl-1^7-(3-(oxetan-3-yl)-2-oxoimidazolidin-1-yl)-1^2,1^3-dihydro-1^1H-2,6-diaza-1(2,1)-benzo[d]imidazola-4(1,3)-benzenacycloundecaphane-3,5-dione]"
3,–,"CC1CCCCNC(=O)c2cccc(c2)C(=O)/N=C2\Nc3cccc(C(=O)N4CC(F)(F)C4)c3N21 (stereo not drawn) [Example 40, (E)-1^7-(3,3-difluoroazetidine-1-carbonyl)-11-methyl-1^2,1^3-dihydro-1^1H-2,6-diaza-1(2,1)-benzo[d]imidazola-4(1,3)-benzenacycloundecaphane-3,5-dione]"

# The remaining lines, values behind:
SMILES,IC50 [1] [nM],IC50 [2] [nM]
"CC1CCCCNC(=O)c2nc(cs2)C(=O)/N=C2\Nc3cccc(C(=O)N(C)C)c3N21 (single isomer, unassigned) [Example 108, (1^2Z,4^2E)-N,N,5-trimethyl-2,11-dioxo-4^2,4^3-dihydro-4^1H-3,10-diaza-1(4,2)-thiazola-4(2,1)-benzo[d]imidazolacycloundecaphane-4^7-carboxamide]",–,23
"CC1CCCCNC(=O)c2nc(cs2)C(=O)/N=C2\Nc3cccc(C(=O)N(C)C)c3N21 (single isomer, unassigned) [Example 109, (1^2Z,4^2E)-N,N,5-trimethyl-2,11-dioxo-4^2,4^3-dihydro-4^1H-3,10-diaza-1(4,2)-thiazola-4(2,1)-benzo[d]imidazolacycloundecaphane-4^7-carboxamide]",–,114
"C[C@H]1CCCCNC(=O)c2cccc(c2)C(=O)/N=C2\Nc3cccc(C(=O)N4CCC5(CCO5)C4)c3N21 (single isomer, unassigned) [Example 120]",5,14
"C[C@H]1CCCCNC(=O)c2cccc(c2)C(=O)/N=C2\Nc3cccc(C(=O)N4CCC5(CCO5)C4)c3N21 (single isomer, unassigned) [Example 121]",5,19
"Cc1nnc(-c2cccc3c2N2/C(=N/C(=O)c4cccc(c4)C(=O)NCCCCC2C)N3)o1 (single isomer, unassigned) [Example 132, (E)-11-methyl-1^7-(5-methyl-1,3,4-oxadiazol-2-yl)-1^2,1^3-dihydro-1^1H-2,6-diaza-1(2,1)-benzo[d]imidazola-4(1,3)-benzenacycloundecaphane-3,5-dione]",10,10
"Cc1nnc(-c2cccc3c2N2/C(=N/C(=O)c4cccc(c4)C(=O)NCCCCC2C)N3)o1 (single isomer, unassigned) [Example 133, (E)-11-methyl-1^7-(5-methyl-1,3,4-oxadiazol-2-yl)-1^2,1^3-dihydro-1^1H-2,6-diaza-1(2,1)-benzo[d]imidazola-4(1,3)-benzenacycloundecaphane-3,5-dione]",10,12
"CC1CCCCNC(=O)c2cccc(c2)C(=O)/N=C2\Nc3cccc(N4CCN(C5COC5)C4=O)c3N21 (single isomer, unassigned) [Example 143, (E)-11-methyl-1^7-(3-(oxetan-3-yl)-2-oxoimidazolidin-1-yl)-1^2,1^3-dihydro-1^1H-2,6-diaza-1(2,1)-benzo[d]imidazola-4(1,3)-benzenacycloundecaphane-3,5-dione]",–,14
"CNC(=O)c1cccc2nc3n(c12)C(C)CCCCNC(=O)c1cccc(c1)C(=O)N3 (stereo not drawn) [Example 34, (E)-N,11-dimethyl-3,5-dioxo-1^2,1^3-dihydro-1^1H-2,6-diaza-1(2,1)-benzo[d]imidazola-4(1,3)-benzenacycloundecaphane-1^7-carboxamide]",2,–
"CC1CCCCNC(=O)c2cccc(c2)C(=O)/N=C2\Nc3cccc(C(=O)N4CCC(F)(F)C4)c3N21 (stereo not drawn) [Example 37, (E)-1^7-(3,3-difluoropyrrolidine-1-carbonyl)-11-methyl-1^2,1^3-dihydro-1^1H-2,6-diaza-1(2,1)-benzo[d]imidazola-4(1,3)-benzenacycloundecaphane-3,5-dione]",5,–
"COC(=O)CN(C)C(=O)c1cccc2c1N1/C(=N/C(=O)c3cccc(c3)C(=O)NCCCCC1C)N2 (stereo not drawn) [Example 38, methyl (E)-N-methyl-N-(11-methyl-3,5-dioxo-1^2,1^3-dihydro-1^1H-2,6-diaza-1(2,1)-benzo[d]imidazola-4(1,3)-benzenacycloundecaphane-1^7-carbonyl)glycinate]",4,–
"CC1CCCCNC(=O)c2cccc(c2)C(=O)/N=C2\Nc3cccc(C(=O)N(C)C4CCC4)c3N21 (stereo not drawn) [Example 39, (E)-N-cyclobutyl-N,11-dimethyl-3,5-dioxo-1^2,1^3-dihydro-1^1H-2,6-diaza-1(2,1)-benzo[d]imidazola-4(1,3)-benzenacycloundecaphane-1^7-carboxamide]",6,–
